# According to patent publication US6946260B2, “Allergen/inflammatory testing and diagnosis” (Euro/DPC Limited, priority 1992, dated 2005):
# Columns and labels:
# Assay type in all cases: cell-based, rat
# [1] = tested on: RBL-2H3 cell-line transfected with the α-chain of the human high-affinity receptor for IgE; test: Attenuation of antigen- or irritant-induced mediator release by antagonists; details: competing sugars; lectins of e.g. pollen or bacterial and viral agglutinins
# Procedure: For example, where a composition was being tested or developed for its ability to attenuate an IgE mediated response such as asthma or hay fever, antigen specific IgE would be present, for example, in the form of human serum.
# Following incubation, cells were washed (2×1 ml) with buffer A (120 mM NaC1, 5 mM KC1, 25 mM PIPES, 1 mM CaC12, 0.04 mM MgC12, 5.6 mM glucose, 0.1% BSA, pH7.4) and pre-incubated for a further period of 10 minutes at 37 degrees C. with buffer A (0.5 ml) which was removed before challenge with buffer A (0.4 ml) supplemented with a pre-selected antigen (in an amount as afore described) and the therapeutic composition or the antagonist.
# (§1) For the determination of antigen induced [^3H]-5HT release, the well was incubated at 37 degrees C. for 15 minutes, cooled on ice, supernatant was then removed and spun at 2000 g (1 minute) before liquid scintillation counting (2 minutes). The percentage release of [^3H]-5HT was calculated by the method of Siraganian and Hook.
# [2] = tested on: RBL-2H3 cell-line transfected with the α-chain of the human high-affinity receptor for IgE; test: Irritant/antigen-induced mediator release in the absence of IgE sensitization; details: control, no sensitizing serum; same antigen concentrations
# Procedure: Parent RBL-2H3 cells or clones transfected with the α-chain of the human high-affinity receptor complex were plated out in 24-well plates at 2×10^5 cells/well as described previously in the citations referred to on Page 2 of this application. For the determination of antigen-induced mediator release, plates were incubated at 37 degrees C. for 15 minutes, cooled on ice, the supernatant was removed, spun at […] (1 minute) before liquid scintillation counting to measure [^3H]-5-hydroxytryptamine (5-HT release. The ImmunoTech histamine enzyme immunoassay was used to quantify histamine release, and hydrolysis of toluene sulphonyl methyl ester was employed to monitor protease release (please see Wilson, A. P. M., Pullar, C. E., Camp, A. M., and Helm B. A., Human IgE Mediates Stimulus Secretion Coupling in Rat Basophilic Leukemia Cells Transfected with the Alpha Chain of the Human High-Affinity Receptor, European Journal of Immunology, 23:240-244, 1993, or alternatively, please see other references cited on Page 2 of this application). […]
# For the determination of irritant or antigen induced [^3H]-5HT release, the well was incubated at 37 degrees C. for 15 minutes, cooled in ice, supernatant was then removed and spun at 2000 g (1 minute) before liquid scintillation counting (2 minutes). The percentage release of [^3H]-5HT was calculated by the method of Siraganian and Hook. […]
# [3] = tested on: RBL-2H3 (H 2/2/C) transfectants; test: Antigen-induced mediator release after sensitization with serum from a bee-venom-allergic individual; details: cells sensitized with serum (1:10) of bee venom sensitive individual (EC), increasing antigen concentrations
# Procedure: Triggering of RBL-2H3 (H 2/2/C) transfectants following sensitization with serum from a bee-venom-allergic individual. Cells were incubated with the serum (1:10), Dex (10-^6M) and [^3H]-5HT. After washing and pre-incubation the cells were challenged with a range of concentrations of purified bee venom phospholipase A2 (PLA2). The percentage release of [^3H]-5HT (●) and β-hexosaminidase (∘) were determined; data were corrected for background and normalized with respect to values obtained for triggering with hIgE-DNP (1 μg/mL and NIP-HSA (100 ng/mL).
# Transfected RBL-2H3 clones were incubated for 24 hours with or without serum (1:10 dilution) from a bee venom sensitive individual (EC) in the presence of 10-^6M dexamethazone and [^3H]-5-hydroxytryptamine. […]
# [^3H]-5-Hydroxytyptamine was measured after a 15 minutes incubation period, release was corrected for background and expressed relative to the total [^3H]-5-hydroxytryptamine incorporated. […]
# as §1, with “Hook (Manual of Clinical Immunology of the American Society for Microbiology Washington D.C., 1980 Page 808).” for “Hook.”
Compound,inhibition of triggering of mast cells and basophils by lectins [1],other results
C[C@@H]1O[C@@H](O)[C@@H](O)[C@H](O)[C@@H]1O [a-L-fucose],can inhibit the triggering of mast cells and basophils,–
CC(=O)N[C@H]1[C@H]([C@H](O)[C@H](O)CO)OC(O)(C(=O)O)C[C@@H]1O (stereo partly drawn) [N-acetyl neuraminic acid],can inhibit the triggering of mast cells and basophils,–
bee venom phospholipase A2,–,"mediator release dose response in non-sensitized cells [2]: mediator release increased in response to antigen concentration; mediator release ([3H]-5HT, β-hexosaminidase) dose response in sensitized cells [3]: typical bell-shaped dose response pattern; mediator release ([3H]-5HT, β-hexosaminidase) dose response in sensitized cells ([3]; listed as bee venom PLA2): typical bell-shaped dose response curve"
OC[C@H]1O[C@@H](O)[C@H](O)[C@@H](O)[C@H]1O [b-D-galactose],can inhibit the triggering of mast cells and basophils,–
CC(=O)N[C@H]1C(O)O[C@H](CO)[C@@H](O)[C@@H]1O (stereo partly drawn) [N-acetyl-D-glucosamin],can inhibit the triggering of mast cells and basophils,–
CO[C@H]1O[C@H](CO)[C@@H](O)[C@H](O)[C@@H]1O [a-methyl-mannoside],can inhibit the triggering of mast cells and basophils,–
OC[C@H]1O[C@@H](O[C@H]2[C@H](O)[C@@H](O)C(O)O[C@@H]2CO)[C@H](O)[C@@H](O)[C@H]1O (stereo partly drawn) [lactose],can inhibit the triggering of mast cells and basophils,–
